Usually Ki stands for a dissociation constant, usually derived from enzyme kinetics or from competition with a known ligand. Low readings indicate tighter binding, high ones weaker binding. As usually defined, the IC50 is the concentration that inhibits the measured activity by half.

Read-outs that look alike come from different tables or passages of the source.

We go through six compounds from patent publication US20020161007A1, “Non-steroidal modulators of estrogen receptors” (priority 2001, published 2002).

For data set [1], the target named is T1, estrogen receptor (Rattus norvegicus, UniProt P06211).
T1 construct: Estrogen receptor-rich cytosol was obtained from the uteri; from tissue; host or cells: uterus of immature Sprague-Dawley rats (cytosol, 100,000 x g supernatant, DCC-treated)
T1 sequence (P06211 1-600): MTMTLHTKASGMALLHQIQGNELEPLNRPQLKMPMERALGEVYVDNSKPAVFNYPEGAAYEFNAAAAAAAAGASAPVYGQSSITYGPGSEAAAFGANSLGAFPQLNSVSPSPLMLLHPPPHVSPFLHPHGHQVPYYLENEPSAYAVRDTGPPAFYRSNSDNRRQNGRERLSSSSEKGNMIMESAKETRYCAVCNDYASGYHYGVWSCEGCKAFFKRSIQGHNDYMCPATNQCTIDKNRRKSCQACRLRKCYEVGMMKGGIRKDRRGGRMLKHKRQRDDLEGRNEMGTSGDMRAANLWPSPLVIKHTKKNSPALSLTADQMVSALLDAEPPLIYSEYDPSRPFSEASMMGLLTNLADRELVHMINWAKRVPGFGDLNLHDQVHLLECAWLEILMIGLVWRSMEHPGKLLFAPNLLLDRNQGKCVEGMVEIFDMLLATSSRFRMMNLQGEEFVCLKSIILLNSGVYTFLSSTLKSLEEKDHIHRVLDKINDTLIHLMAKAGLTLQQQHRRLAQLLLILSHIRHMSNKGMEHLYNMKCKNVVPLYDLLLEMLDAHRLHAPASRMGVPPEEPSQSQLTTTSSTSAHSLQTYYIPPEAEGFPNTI
The data set can be described thus: Displacement of tritium-labelled estradiol from estrogen receptor-rich uterine cytosol. The format is binding. The note with it: mean ± SEM. The method, then:
EXAMPLE 16—Determination of the binding affinity of compounds for estrogen receptor
Binding affinity (Ki value) for the estrogen receptor is measured by the ability of the compound to displace tritium-labelled estradiol from the receptor site.
Procedure Estrogen receptor-rich cytosol was obtained from the uteri of humanely sacrificed Sprague-Dawley immature rats (100-150 g mass). Briefly, the uteri were homogenized in 0.01 M sodium phosphate buffer, pH 7.3, containing 0.15 M NaCl, 0.1% gelatin and 0.01% sodium azide. The homogenate was then centrifuged at 100,000×g, […]. The cytosol thus isolated was pretreated with dextran coated charcoal (DCC on ice) and re-isolated using centrifugation, before freezing at−20° C. for later use. The protein concentration of cytosol samples was determined using a standard Bradford protein assay and an appropriate protein concentration range (150 μg protein in a total volume of 0.14 ml) for assay prepared. The required amounts of tritium-labeled (hot) and non-labeled (cold) estradiol were calculated using standard saturation curve techniques. A fresh buffer solution was prepared (Tris[tris(hydroxymethyl)-aminomethane]buffer-10 mM, pH 7.4, containing 1.5 mM EDTA and 3 mM sodium azide). Displacement testing of the compounds was facilitated through the incubation of a buffered solution of a known concentration of the test compound with hot estradiol solution (specific activity 157 Ci/mmol-final conc. 5 nM/ tube), followed by the addition of estrogen receptor-rich cytosol (150 μg protein). Total and non-specific binding control assays were determined in the absence and presence of 14 μl of a 0.2 mM cold estradiol solution respectively, properly corrected for the presence of ethanol in the test (displacement) samples. Samples were vortexed to ensure homogeneity and refrigerated at […] for 16-20 h. After this time the samples were retreated with DCC on ice and centrifuged for ten min at 3500×g. A 170 μl sample was pipetted from each vial and diluted with 10 ml scintillation fluid (Ecoscint). […] The samples thus prepared were counted for radioactivity by liquid scintillation counting. Binding values were obtained as counts per minute (cpm) and were converted to disintegrations per minute (dpm) and computationally analysed using sigmoidal curve fitting programs EBDA and LIGAND [14] to fit the displacement curves and to calculate binding affinity values (Ki) for the test compounds.
The following table illustrates the relative binding affinity values measured for selected compounds, based on their ability to displace radiolabelled estradiol from estrogen receptor-rich cytosol. Values are expressed as the mean determined±SEM.

Data set [2] relates to human breast tumor MCF-7 cell line. The data set can be described thus: MTT antiproliferative assay on human MCF-7 cell line. The note with it: for IC50: MTT inhibition of proliferation, mean of triplicate determinations, read-out: IC50 Range; for % Cell viability: 72 h, MTT, MCF-7. The format is cell-based. From the text:
EXAMPLE 14—Determination of the antiproliferative effects on human MCF-7 cell lines.
MTT is a yellow tetrazolium salt which is taken up only by metabolically active cells and subsequently cleaved by mitochondrial dehydrogenases to yield a purple crystalline formazan dye. On solubilisation this purple color may be read spectrophotometrically at 570 nm. The absorbance measured at this wavelength is directly proportional to the amount of viable cells present.
Procedure : The human breast tumor MCF-7 cell line was cultured in Eagles minimum essential medium in a 5% CO2 atmosphere with 10% fetal calf serum. The medium was supplemented with 1% non-essential amino acids. The cells were trypsinized and seeded at a density of 1.5×10^4 into a 96-well plate and incubated at 37° C., 5% CO2 atmosphere for 24 h. […] Control wells contained the equivalent volume of the vehicle ethanol (1% v/v). The culture medium was then removed and the cells washed with 100 μl PBS and 50 μl MTT added, to reach a final concentration of 1 mg/ml MTT added. The cells were incubated for 2 h in darkness at […]. At this point solubilisation was begun through the addition of 200 μl DMSO and the cells maintained at room temperature in darkness for 20 min to ensure thorough color diffusion before reading the absorbance. The absorbance value of control cells (no added compound) was set to 100% cell viability. Graphs of absorbance versus cell density per well were prepared to assess cell viability.
In general terms: Tetrazolium dyes change colour on reduction, which living cells bring about.

The test system of data set [3] is MCF-7 cells. As to the kind of experiment: FACS (propidium iodide) assay for apoptotic induction in MCF-7 cells. Format: cell-based, human. The note with it: 50 μM, 16 hours. On the procedure: EXAMPLE 17—Assay for determining apoptotic induction by compounds
Fluorescence Activated Cell Sorting
Procedure Following treatment of MCF-7 cells with apoptotic compounds, the cells were washed three times with PBS before being trypsinised and centrifuged at 300 g for 5 min. They were then resuspended in 200 μl PBS, made up to 2 ml with ice-cold ethanol (70% v/v) and left to sit on ice for at least 1 h to fix them. Approximately 1 h prior to use they were centrifuged at 300 g for 3 min and the supernatant carefully pipeted off. The pellet was resuspended in 800 μl PBS. RNAase (100 μL; 1mg/mL) and 100 μL of the fluorescent dye propidium iodide (PI; 400 μg/mL) which binds DNA were added. The tubes were vortexed and incubated at 37° C. for 30 min. Flow cytometry was performed with a FACS calibur flow cytometer from Becton Dickinson. FACS data was analysed using the programme Cell Quest.

Data set [4] concerns human MCF-7 breast cancer cells. The data set can be described thus: LDH release cytotoxicity assay on human MCF-7 cells. Format: cell-based. As to conditions: 72 h. From the text:
EXAMPLE 15—Determination of the cytotoxic effects on human MCF-7 cell lines.
Lactate dehydrogenase (LDH) is a cytosolic enzyme released upon cell lysis (death). Through the use of a commercial LDH assay kit, released LDH converts a substrate tetrazolium salt into a soluble red formazan product. The absorbance of this dye can be measured directly at 490 nm, the color formed is proportional to the number of lysed cells, and as such the extent of cytotoxic activity for the compound added may be assessed.
Procedure : As with the cell proliferation assay, human MCF-7 breast cancer cells were plated at a density of 1.5×10^4 per well in a 96-well plate, then incubated at 37° C., 5% CO2 atmosphere for 24 h. The cells were treated with the compound of choice at varying concentrations (1nM-100 μM), then incubated for a further 72 h. Following incubation 50 μl aliquots of medium were removed to a fresh 96-well plate. A 50 μl per well LDH substrate mixture was added and the plate left in darkness at room temperature for 30 minutes. Stop solution (50 μl) was added to all wells before reading the absorbance at 490 nm. A control of 100% lysis was determined for a set of untreated cells which were lysed through the addition of 20 μl lysis solution to the media 45 min prior to harvesting.
In general terms: LDH in the medium is a marker of cell lysis.

`CCC(=C(Cc1ccc(OCCN2CCOCC2)cc1)c1ccccc1)c1ccccc1` [Compound 20] gave an inhibition constant (Ki) in data set [1] of 2480 ± 450 nM. Besides, the 50% inhibitory concentration (IC50) in data set [2] (Homo sapiens, MCF7) lay within 15000 to 20000 nM.
For the compound `CCC(Cc1ccccc1)=C(c1ccc(O)cc1)c1ccc(OCCN2CCCC2)cc1` [Compound 25, 4-{2-Benzyl-1-[4-(2-pyrrolidin-1-yl-ethoxy)-phenyl]-but-1-enyl}-phenol], in data set [3], the “% Cell cycle phases G1” value was determined as 51.3%, the “% Cell cycle phases G2/M” value stood at 21.0% and the “% Cell cycle phases S” value is 7.6%. In addition, in data set [3] (sub-G1 apoptotic peak), the “% Cell cycle phases sub-G1” value came out at 20.1%. Further, in data set [2] (Homo sapiens, MCF7), the IC50 lay within 10 to 100 nM.
Take `CCC(Cc1ccccc1)=C(c1ccccc1)c1ccc(OCCN(C)C)cc1` (racemic) [Compound 1, 2-Benzyl-1-phenyl-1-[4-(dimethylaminoethoxy)phenyl]but-1-ene]: the Ki in data set [1] stood at 459 ± 230 nM. The IC50 in data set [2] (Homo sapiens, MCF7) was 10000 to 15000 nM.
The corresponding values for `CC/C(=C(\Cc1ccccc1)c1ccc(OCCN(C)C)cc1)c1ccccc1` [Compound 6, 1-Benzyl-2-phenyl-[(4-dimethyleaminoethoxy)phenyl]but-1-ene] are 503 ± 98 nM and 20000 to 25000 nM.
In the same order, the values of `CCC(=C(Cc1ccccc1)c1ccccc1)c1ccc(OCCN2CCCCC2)cc1` [Compound 14, 1-Benzyl-1-phenyl-2-[(4-pipyridinylethoxy)phenyl]but-1-ene] are 2390 ± 350 nM and 15000 to 20000 nM.
Regarding `CCC(Cc1ccccc1)=C(c1ccccc1)c1ccc(OCCN2CCCCC2)cc1` [Compound 4, 2-Benzyl-1-phenyl-1-[4-(pipyridinylethoxy)phenyl]but-1-ene], the “% Cell viability” value in data set [2] (1 nM) was determined as 103.8%; in data set [2] (10 nM), 100.3%; in data set [2] (100 nM), 91.14%; in data set [2] (1 μM) it was 85.13%; in data set [2] (10 μM), 29.11%; in data set [2] (50 μM) it was 1.58%. Further, in data set [2] (100 μM), the “% Cell viability” value worked out at 1.27%. Moreover, the IC50 in data set [2] fell in the range of 1000 to 5000 nM. The “% Cytotoxicity” value in data set [4] (1 nM) was determined as 3.67%; in data set [4] (10 μM) it was 34.76%; in data set [4] (50 μM) it was 49.44%; in data set [4] (100 μM), 49.14%.
